Values joined by “and” are separate entries in the source; they are usually repeats but may differ in a detail not shown here. Equal values may be shown once. Read-outs that look alike come from different tables or passages of the source.
Experiment: Continuous infusion study pharmacokinetics (plasma)
Assay type: in vivo, human
Details: for ke: for t1/2 = 4 hours; for Css: mean of 168 h to 506 h values per patient; for dose proportionality of steady-state concentration (Css): continuous infusion 1-12 mg/h; for level at 2 h / level at 168 h / level at 170 h / level at 336 h / level at 338 h / level at 504 h / level at 506 h: iv
Method: Patients with solid tumors received a continuous infusion of 1 mg/h, 2 mg/h, 4 mg/h, 8 mg/h or 12 mg/h. with a weekly change of infusion bag.
Blood samples were taken on Day 1 (first dose) at pre-dose and 2 h after start of infusion and then weekly just before change of infusion bag and 2 hours thereafter for the first 4 weeks.
The following pharmacokinetic parameters were derived at Merck KGaA. Darmstadt, Germany, by mathematical methods using Kinetica Version 4.1.1.
CL the total body clearance of EMD 121974 from plasma Css plasma concentration at steady state ke elimination rate constant Rate infusion rate t1/2, half life V Volume of distribution
Css, the plasma concentration at steady state, has been estimated by the arithmetic mean of all concentration values from time point 168 h to 506 h per patient.
From Css and t1/2 the PK parameters CL, ke and V were calculated as follows: […]

[1] = Rate 12 mg/h, Mean, t1/2 = 4 hours

## CC(C)[C@H]1C(=O)N[C@@H](CCCN=C(N)N)C(=O)NCC(=O)N[C@@H](CC(=O)O)C(=O)N[C@H](Cc2ccccc2)C(=O)N1C [Cilengitide, cyclo-(Arg-Gly-Asp-DPhe-NMeVal)]
Rate 8 mg/h, individual subjects
  ke: 0.173 h⁻¹
Rate 8 mg/h, individual subjects, listed as EMD 121974
  Css: 1343.0 ng/mL and 833.2 ng/mL and 1772.0 ng/mL
Rate 12 mg/h, 0 h (pre-dose), individual subjects
  EMD 121974 Concentrations: Undetectable
Rate 12 mg/h, 2 h, individual subjects, listed as EMD 121974
  EMD 121974 Concentrations: 722.00 ng/mL and 303.00 ng/mL and 472.00 ng/mL
Rate 12 mg/h, 168 h, individual subjects, listed as EMD 121974
  EMD 121974 Concentrations: 777.00 ng/mL and 2550.00 ng/mL and 1980.00 ng/mL
Rate 12 mg/h, 170 h, individual subjects, listed as EMD 121974
  EMD 121974 Concentrations: 1130.00 ng/mL and 1770.00 ng/mL and 1340.00 ng/mL
Rate 12 mg/h, 336 h, individual subjects, listed as EMD 121974
  EMD 121974 Concentrations: 4280.00 ng/mL and 1250.00 ng/mL and 1790.00 ng/mL
Rate 12 mg/h, 338 h, individual subjects, listed as EMD 121974
  EMD 121974 Concentrations: 1780.00 ng/mL and 1610.00 ng/mL and 1620.00 ng/mL
Rate 12 mg/h, 504 h, individual subjects, listed as EMD 121974
  EMD 121974 Concentrations: 2220.00 ng/mL and 989.00 ng/mL and 2050.00 ng/mL
Rate 12 mg/h, 506 h, individual subjects, listed as EMD 121974
  EMD 121974 Concentrations: 1550.00 ng/mL and 1230.00 ng/mL and 1880.00 ng/mL
Rate 12 mg/h, CL=Rate/Css, individual subjects, listed as EMD 121974
  CL: 7.66 L/h and 6.75 L/h
[1]
  V, Mean: 39.5 L
  ke, Mean: 0.173 h⁻¹
Rate 12 mg/h, V=CL/ke, t1/2 = 4 hours, individual subjects, listed as EMD 121974
  V: 35.4 L and 44.2 L and 39.0 L
Rate 12 mg/h, individual subjects
  ke: 0.173 h⁻¹
Rate 12 mg/h, individual subjects, listed as EMD 121974
  Css: 1956.2 ng/mL and 1566.5 ng/mL and 1776.7 ng/mL
Assuming a half-life of 4 hours
  time to reach steady state conditions: ≤ 24 h
Listed as EMD
  dose proportionality of steady-state concentration (Css): increased proportionally to dose
Listed as EMD 121974
  dose proportionality of steady-state concentration (Css): increase proportional to dose
human, plasma, intravenous, 1 mg/h, Rate 1 mg/h, Mean, read-out: CL, Mean (converted)
  clearance: 139 mL/min
human, plasma, intravenous, 2 mg/h, Rate 2 mg/h, CL=Rate/Css, individual subjects, read-out: CL (converted)
  clearance: 115 mL/min
human, plasma, intravenous, 2 mg/h, Rate 2 mg/h, Mean, read-out: CL, Mean (converted)
  clearance: 95.3 mL/min
human, plasma, intravenous, 4 mg/h, Rate 4 mg/h, CL=Rate/Css, individual subjects, read-out: CL (converted)
  clearance: 107 mL/min
human, plasma, intravenous, 4 mg/h, Rate 4 mg/h, Mean, read-out: CL, Mean (converted)
  clearance: 109 mL/min
human, plasma, intravenous, 8 mg/h, Rate 8 mg/h, Mean, read-out: CL, Mean (converted)
  clearance: 112 mL/min
human, plasma, intravenous, 12 mg/h, Rate 12 mg/h, CL=Rate/Css, individual subjects, read-out: CL (converted)
  clearance: 102 mL/min
human, plasma, intravenous, 12 mg/h, Rate 12 mg/h, Mean, read-out: CL, Mean (converted)
  clearance: 114 mL/min
human, plasma, intravenous, range of dose-group means, 1-12 mg/h, read-out: mean clearance
  clearance: 95.3 to 139 mL/min
human, plasma, intravenous, range of dose-group means, 1-12 mg/h, t1/2 = 4 hours assumed, read-out: Mean volume of distribution
  Vd: 33 to 48 L
human, plasma, 1 mg/h, Rate 1 mg/h, 2 h, Mean, read-out: EMD 121974 Concentrations, Mean
  level at 2 h: 39.1 ng/mL
human, plasma, 1 mg/h, Rate 1 mg/h, 168 h, Mean, read-out: EMD 121974 Concentrations, Mean
  level at 168 h: 156 ng/mL
human, plasma, 1 mg/h, Rate 1 mg/h, 170 h, Mean, read-out: EMD 121974 Concentrations, Mean
  level at 170 h: 66.6 ng/mL
human, plasma, 1 mg/h, Rate 1 mg/h, 336 h, Mean, read-out: EMD 121974 Concentrations, Mean
  level at 336 h: 209 ng/mL
human, plasma, 1 mg/h, Rate 1 mg/h, 338 h, Mean, read-out: EMD 121974 Concentrations, Mean
  level at 338 h: 191 ng/mL
human, plasma, 1 mg/h, Rate 1 mg/h, 504 h, Mean, read-out: EMD 121974 Concentrations, Mean
  level at 504 h: 62.1 ng/mL
human, plasma, 1 mg/h, Rate 1 mg/h, 504 h, individual subjects, read-out: EMD 121974 Concentrations
  level at 504 h: 62.1 ng/mL
human, plasma, 1 mg/h, Rate 1 mg/h, 506 h, Mean, read-out: EMD 121974 Concentrations, Mean
  level at 506 h: 109 ng/mL
human, plasma, 1 mg/h, Rate 1 mg/h, 506 h, individual subjects, read-out: EMD 121974 Concentrations
  level at 506 h: 94.4 ng/mL
human, plasma, 2 mg/h, Rate 2 mg/h, 2 h, Mean, read-out: EMD 121974 Concentrations, Mean
  level at 2 h: 162 ng/mL
human, plasma, 2 mg/h, Rate 2 mg/h, 168 h, Mean, read-out: EMD 121974 Concentrations, Mean
  level at 168 h: 344 ng/mL
human, plasma, 2 mg/h, Rate 2 mg/h, 170 h, Mean, read-out: EMD 121974 Concentrations, Mean
  level at 170 h: 280 ng/mL
human, plasma, 2 mg/h, Rate 2 mg/h, 336 h, Mean, read-out: EMD 121974 Concentrations, Mean
  level at 336 h: 495 ng/mL
human, plasma, 2 mg/h, Rate 2 mg/h, 338 h, Mean, read-out: EMD 121974 Concentrations, Mean
  level at 338 h: 360 ng/mL
human, plasma, 2 mg/h, Rate 2 mg/h, 504 h, Mean, read-out: EMD 121974 Concentrations, Mean
  level at 504 h: 376 ng/mL
human, plasma, 2 mg/h, Rate 2 mg/h, 506 h, Mean, read-out: EMD 121974 Concentrations, Mean
  level at 506 h: 337 ng/mL
human, plasma, 4 mg/h, Rate 4 mg/h, 2 h, Mean, read-out: EMD 121974 Concentrations, Mean
  level at 2 h: 328 ng/mL
human, plasma, 4 mg/h, Rate 4 mg/h, 168 h, Mean, read-out: EMD 121974 Concentrations, Mean
  level at 168 h: 626 ng/mL
human, plasma, 4 mg/h, Rate 4 mg/h, 170 h, Mean, read-out: EMD 121974 Concentrations, Mean
  level at 170 h: 516 ng/mL
human, plasma, 4 mg/h, Rate 4 mg/h, 336 h, Mean, read-out: EMD 121974 Concentrations, Mean
  level at 336 h: 726 ng/mL
human, plasma, 4 mg/h, Rate 4 mg/h, 338 h, Mean, read-out: EMD 121974 Concentrations, Mean
  level at 338 h: 559 ng/mL
human, plasma, 4 mg/h, Rate 4 mg/h, 504 h, Mean, read-out: EMD 121974 Concentrations, Mean
  level at 504 h: 665 ng/mL
human, plasma, 4 mg/h, Rate 4 mg/h, 506 h, Mean, read-out: EMD 121974 Concentrations, Mean
  level at 506 h: 681 ng/mL
human, plasma, 8 mg/h, Rate 8 mg/h, 2 h, Mean, read-out: EMD 121974 Concentrations, Mean
  level at 2 h: 503 ng/mL
human, plasma, 8 mg/h, Rate 8 mg/h, 168 h, Mean, read-out: EMD 121974 Concentrations, Mean
  level at 168 h: 1460 ng/mL
human, plasma, 8 mg/h, Rate 8 mg/h, 170 h, Mean, read-out: EMD 121974 Concentrations, Mean
  level at 170 h: 1210 ng/mL
human, plasma, 8 mg/h, Rate 8 mg/h, 336 h, Mean, read-out: EMD 121974 Concentrations, Mean
  level at 336 h: 525 ng/mL
human, plasma, 8 mg/h, Rate 8 mg/h, 338 h, Mean, read-out: EMD 121974 Concentrations, Mean
  level at 338 h: 972 ng/mL
human, plasma, 8 mg/h, Rate 8 mg/h, 504 h, Mean, read-out: EMD 121974 Concentrations, Mean
  level at 504 h: 1630 ng/mL
human, plasma, 8 mg/h, Rate 8 mg/h, 506 h, Mean, read-out: EMD 121974 Concentrations, Mean
  level at 506 h: 1290 ng/mL
human, plasma, 12 mg/h, Rate 12 mg/h, 2 h, Mean, read-out: EMD 121974 Concentrations, Mean
  level at 2 h: 499 ng/mL
human, plasma, 12 mg/h, Rate 12 mg/h, 168 h, Mean, read-out: EMD 121974 Concentrations, Mean
  level at 168 h: 1770 ng/mL
human, plasma, 12 mg/h, Rate 12 mg/h, 170 h, Mean, read-out: EMD 121974 Concentrations, Mean
  level at 170 h: 1410 ng/mL
human, plasma, 12 mg/h, Rate 12 mg/h, 336 h, Mean, read-out: EMD 121974 Concentrations, Mean
  level at 336 h: 2440 ng/mL
human, plasma, 12 mg/h, Rate 12 mg/h, 338 h, Mean, read-out: EMD 121974 Concentrations, Mean
  level at 338 h: 1670 ng/mL
human, plasma, 12 mg/h, Rate 12 mg/h, 504 h, Mean, read-out: EMD 121974 Concentrations, Mean
  level at 504 h: 1750 ng/mL
human, plasma, 12 mg/h, Rate 12 mg/h, 506 h, Mean, read-out: EMD 121974 Concentrations, Mean
  level at 506 h: 1550 ng/mL
